Values joined by “and” are separate entries in the source; they are usually repeats but may differ in a detail not shown here. Equal values may be shown once. Read-outs that look alike come from different tables or passages of the source.
Experiments:
CYP3A4 [1] = target: T1, CYP3A4 (Homo sapiens, UniProt P08684); conditions: BFC debenzylation activity, same method as in this study; previously reported analogues; cited from earlier work
T1 construct: The full-length protein was used for assays and the truncated form was used for crystallization; made in house
Target sequence in this assay (P08684 2-503): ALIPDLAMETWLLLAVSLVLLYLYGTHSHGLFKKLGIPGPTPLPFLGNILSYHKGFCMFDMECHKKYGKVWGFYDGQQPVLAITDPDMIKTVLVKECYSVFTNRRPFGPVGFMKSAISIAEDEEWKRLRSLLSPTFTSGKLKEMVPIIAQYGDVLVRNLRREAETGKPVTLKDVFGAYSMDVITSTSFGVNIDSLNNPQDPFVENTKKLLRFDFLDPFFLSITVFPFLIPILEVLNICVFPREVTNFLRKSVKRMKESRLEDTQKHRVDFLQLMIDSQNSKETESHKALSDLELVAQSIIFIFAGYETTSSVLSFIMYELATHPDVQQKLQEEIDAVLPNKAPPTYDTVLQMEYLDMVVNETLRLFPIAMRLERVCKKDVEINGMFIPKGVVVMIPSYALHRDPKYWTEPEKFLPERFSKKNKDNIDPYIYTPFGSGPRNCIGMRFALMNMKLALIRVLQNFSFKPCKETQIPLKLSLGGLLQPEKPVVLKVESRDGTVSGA

CYP3A4 [2] = target: T1, CYP3A4; assay: Stopped-flow kinetics of ligand binding; conditions: for Percentage of the absorbance change taking place during the fast kinetic phase: ligand-binding reaction; for kfast: rate constant for the fast kinetic phase of the ligand-binding reaction
Experimental: Kinetics of Ligand Binding—The kinetics of ligand binding to CYP3A4 were measured at 427 nm in an SX.18MV stopped-flow apparatus (Applied Photophysics, UK), as previously described.
Target sequence in this assay (P08684 whole entry, the tested form may be a part): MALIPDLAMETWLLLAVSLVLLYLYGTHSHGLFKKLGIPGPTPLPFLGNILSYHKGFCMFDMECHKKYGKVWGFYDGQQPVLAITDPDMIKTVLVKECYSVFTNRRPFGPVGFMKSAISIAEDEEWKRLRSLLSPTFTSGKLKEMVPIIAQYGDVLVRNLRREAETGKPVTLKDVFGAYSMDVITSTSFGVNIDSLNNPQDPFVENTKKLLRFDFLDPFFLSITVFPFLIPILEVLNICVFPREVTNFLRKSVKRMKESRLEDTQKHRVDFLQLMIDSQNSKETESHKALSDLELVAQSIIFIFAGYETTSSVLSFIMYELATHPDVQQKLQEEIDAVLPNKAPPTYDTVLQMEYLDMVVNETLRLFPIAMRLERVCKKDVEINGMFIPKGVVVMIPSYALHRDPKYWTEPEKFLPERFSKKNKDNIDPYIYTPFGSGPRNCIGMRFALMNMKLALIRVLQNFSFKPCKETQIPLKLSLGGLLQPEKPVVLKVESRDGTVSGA

CYP3A4 [3] = target: T1, CYP3A4; conditions: previously reported analogues; read-out: Ks; cited from earlier work
Target sequence in this assay (P08684 whole entry, the tested form may be a part): as above

CYP3A4 [4] = target: T1, CYP3A4; assay: H2O2-dependent heme depletion (heme bleaching) assay; conditions: for Heme Destroyed: 10 mM H2O2, 2 h, relative to ligand-free CYP3A4 = 100%; for kH2O2: rate constant for the H2O2-dependent heme-bleaching reaction, 10 mM H2O2, 16 μM inhibitor
Experimental: H2O2-dependent heme depletion assay—Heme bleaching in ligand-free and inhibitor-bound CYP3A4 (1.6 μM) was monitored at 23 °C in 0.1 M phosphate buffer, pH 7.4. After 10 min of preincubation of CYP3A4 with 16 μM inhibitors, heme decay was initiated by the addition of 10 mM H2O2 (final concentration) and monitored at 420 nm for 2 h. The percentage of heme destroyed was calculated relative to that in ligand-free CYP3A4, considered as 100% decay.
Target sequence in this assay (P08684 whole entry, the tested form may be a part): as above

recombinant CYP3A5 = recombinant CYP3A5 (Homo sapiens, UniProt P20815); assay: Inhibitory potency against recombinant CYP3A5; assay type: biochemical; conditions: read-out: IC50 estimates
From the text: Thus, one optimization strategy would be the R3 enlargement and branching. […] Our analogues lack the backbone hydroxyl as well, but contain much smaller/chemically simpler end-groups.

CYP3A4 [5] = target: T1, CYP3A4; assay: Inhibitory potency for the BFC O-debenzylase activity in a soluble reconstituted system; assay type: biochemical; conditions: for IC50: BFC debenzylase activity, soluble reconstituted system with cytochrome P450 reductase
Experimental: Inhibitory Potency Assays—The inhibitory potency for the BFC O-debenzylase activity of CYP3A4 was evaluated fluorometrically in a soluble reconstituted system, and the IC50 values were derived from the [% activity] vs. [inhibitor] plots, as described in detail elsewhere.
Target sequence in this assay (P08684 2-503): as the sequence (P08684 2-503) above

CYP3A4 [6] = target: T1, CYP3A4; assay: Thermal denaturation (ligand-dependent change in melting temperature); assay type: binding; conditions: purified CYP3A4 protein solution, pH 7.4, ligand-dependent change in melting temperature of CYP3A4, 1 μM protein, 20 μM ligand
Experimental: Thermal Denaturation—Melting curves were recorded in 0.1 M phosphate buffer, pH 7.4, using a Cary 300 spectrophotometer. Protein (1 μM) was mixed with a ligand (20 μM) and incubated for 15 min at 23 °C. Protein denaturation was monitored at 260 nm using a 0.2 °C measurement step, 0.9 °C/min ramp rate, and 50–75 °C temperature range. The denaturation midpoint (melting temperature; Tm) was determined from non-linear fittings to the melting curve, as described earlier.
Target sequence in this assay (P08684 whole entry, the tested form may be a part): as the sequence (P08684 whole entry, the tested form may be a part) above

CYP3A4 [7] = target: T1, CYP3A4; assay: Spectral binding titrations (equilibrium ligand binding, type II spectral change); conditions: for Kd: 23 °C, 0.1 M phosphate pH 7.4, quadratic fits to titration plots, read-out: Ks (spectral dissociation constant); for λmax Ferric: ferric ligand-bound CYP3A4; for λmax Ferrous: ferrous ligand-bound CYP3A4; for ΔAmax: maximal absorbance change (peak-to-trough in difference spectrum) relative to that induced by ritonavir; for A421/417: ratio between absorption maxima of ferric ligand-bound and ligand-free CYP3A4
Experimental: Spectral Binding Titrations—Equilibrium ligand binding to CYP3A4 was monitored using a Cary 300 spectrophotometer at 23 °C in 0.1 M phosphate buffer, pH 7.4, supplemented with 20% glycerol and 1 mM dithiothreitol. Inhibitors were dissolved in dimethyl sulfoxide (DMSO) and added to a 2 μM protein solution in small aliquots, with the final solvent concentration of <2%. The spectral dissociation constant (Ks) was determined from quadratic fits to the titration plots.
Target sequence in this assay (P08684 whole entry, the tested form may be a part): as above

CYP3A4 [8] = target: T1, CYP3A4; conditions: previously reported analogues; cited from earlier work
Target sequence in this assay (P08684 whole entry, the tested form may be a part): as above

Sequence of recombinant CYP3A5 (P20815 whole entry): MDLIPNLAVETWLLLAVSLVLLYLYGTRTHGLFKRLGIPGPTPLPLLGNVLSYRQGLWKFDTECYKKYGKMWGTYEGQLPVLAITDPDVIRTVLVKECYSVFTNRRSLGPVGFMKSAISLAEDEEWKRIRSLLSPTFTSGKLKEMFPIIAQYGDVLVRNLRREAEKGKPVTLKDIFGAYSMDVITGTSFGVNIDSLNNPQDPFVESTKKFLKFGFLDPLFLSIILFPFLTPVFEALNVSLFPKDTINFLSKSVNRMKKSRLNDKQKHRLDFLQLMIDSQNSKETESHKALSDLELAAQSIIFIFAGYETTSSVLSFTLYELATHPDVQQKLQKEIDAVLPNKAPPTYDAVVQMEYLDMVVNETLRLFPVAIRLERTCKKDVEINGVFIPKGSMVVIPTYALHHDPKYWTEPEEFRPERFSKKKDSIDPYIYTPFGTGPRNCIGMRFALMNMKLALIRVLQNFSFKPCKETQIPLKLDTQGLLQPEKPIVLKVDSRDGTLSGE

Compound | Percentage of the absorbance change taking place during the fast kinetic phase (CYP3A4 [2]) | kfast (CYP3A4 [2]) | Heme Destroyed (CYP3A4 [4]) | kH2O2 (CYP3A4 [4]) | IC50 (CYP3A4 [5]) | ΔTm at 15 min, 20 μM (CYP3A4 [6]) | Kd (CYP3A4 [7]; 2 μM protein) | λmax Ferric (CYP3A4 [7]) | λmax Ferrous (CYP3A4 [7]) | ΔAmax (CYP3A4 [7]) | A421/417 (CYP3A4 [7]) | further results
CC(C)(C)OC(=O)N[C@H](CS[C@H](Cc1ccccc1)C(=O)NCc1cccnc1)Cc1ccccc1 [Compound 4b, reference compound] | 31% | 13.2 ± 1.8 s⁻¹ | 39 ± 5% | 0.64 ± 0.07 10^3 × min^−1 |  |  |  |  |  |  |  | IC50 (CYP3A4 [1]): 1190 nM; Kd (CYP3A4 [3]): 63 nM
O=C(CCc1cccnc1)N[C@H](CS[C@@H](Cc1ccccc1)C(=O)NCCc1cccnc1)Cc1ccccc1 [Compound 8c] |  |  | 24 ± 2% | 0.32 ± 0.03 10^3 × min^−1 | 210 ± 30 nM |  |  |  |  |  |  | IC50 (recombinant CYP3A5): 180 to 200 nM
O=C(CNC(=O)c1cccnc1)N[C@H](CS[C@H](Cc1ccccc1)C(=O)NCCCc1cccnc1)Cc1ccccc1 [Compound 10b] | 29% | 13.7 ± 1.5 s⁻¹ | 19 ± 3% | 0.24 ± 0.03 10^3 × min^−1 |  | 7.3 °C | 9 ± 1 nM | 422 nm | 443 nm | 110% | 1.10 | IC50 (CYP3A4 [5]; human, probe BFC (O-debenzylation)): 210 ± 20 nM; Kd (CYP3A4 [7]; human, purified CYP3A4 protein solution, pH 7.4, 2 μM protein): 8 to 9 nM
CC(C)(C)OC(=O)N[C@H](CS[C@H](Cc1ccccc1)C(=O)NCC(=O)Nc1cccnc1)Cc1ccccc1 [Compound 4] | 27% | 13.8 s⁻¹ and 13.8 ± 1.5 s⁻¹ | 44 ± 5% | 0.70 ± 0.08 10^3 × min^−1 | 1600 ± 200 nM | 1.9 °C | 1360 ± 120 nM | 421 nm |  | 98% | 0.99 | fold increase in IC50 relative to 3a (CYP3A4 [5]; BFC O-debenzylase activity, relative to 3a): 10 fold; fold increase in Ks relative to 3a (CYP3A4 [7]; relative to 3a): 100 fold
CC(C)(C)OC(=O)N[C@H](CS[C@@H](Cc1ccccc1)C(=O)NCCc1cccnc1)Cc1ccccc1 [Compound 4h, reference compound] | 28% | 13.8 ± 2.0 s⁻¹ | 22 ± 3% | 0.32 ± 0.03 10^3 × min^−1 |  |  |  |  |  |  |  | 
O=C(CCc1cccnc1)N[C@H](CS[C@H](Cc1ccccc1)C(=O)NCCc1cccnc1)Cc1ccccc1 [Compound 8b] | 24% | 5.6 s⁻¹ and 5.6 ± 0.6 s⁻¹ | 32 ± 3% | 0.44 ± 0.06 10^3 × min^−1 | 820 ± 90 nM | 4.2 °C | 53 ± 9 nM | 421 nm | 443 nm | 109% | 1.03 | increase in IC50 relative to 4f (CYP3A4 [5]; relative to 4f): ~ 20%; increase in Ks relative to 4f (CYP3A4 [7]; relative to 4f): ~ 20%
CC(C)(C)OC(=O)N[C@H](CS[C@H](Cc1ccccc1)C(=O)NCc1ccncc1)Cc1ccccc1 [Compound 5a] | 34% | 22.5 ± 3.1 s⁻¹ | 22% and 22 ± 3% | 0.31 ± 0.04 10^3 × min^−1 | 310 ± 30 nM | 5.2 °C | 34 ± 5 nM | 422 nm | 443 nm | 105% | 1.07 | fold improvement in inhibitory potency relative to 4f (CYP3A4 [5]; relative to 4f): 1.3 fold; fold improvement in binding affinity relative to 4f (CYP3A4 [7]; relative to 4f): 2.2 fold
CC(C)(C)OC(=O)N[C@H](CS[C@H](Cc1ccccc1)C(=O)NCCc1cccnc1)Cc1ccccc1 [Compound 4f, reference compound] | 32% | 11.4 ± 1.4 s⁻¹ | 37% and 37 ± 4% | 0.60 ± 0.08 10^3 × min^−1 |  |  |  |  |  |  |  | ΔTm (CYP3A4 [8]): 4.2 °C
CC(C)(C)OC(=O)N[C@H](CS[C@H](Cc1ccccc1)C(=O)NCCc1ccncc1)Cc1ccccc1 [Compound 5b] | 31% | 18.2 ± 1.8 s⁻¹ | 22% and 22 ± 2% | 0.31 ± 0.03 10^3 × min^−1 | 160 ± 20 nM | 5 °C | 14 ± 2 nM | 423 nm | 443 nm | 126% | 1.06 | IC50 (recombinant CYP3A5): 180 to 200 nM
CC(C)(C)OC(=O)N[C@H](CS[C@H](Cc1ccccc1)C(=O)NCCCc1cccnc1)Cc1ccccc1 [Compound 3a, reference compound] | 36% | 12.5 ± 1.3 s⁻¹ | 18% and 18 ± 2% | 0.21 ± 0.03 10^3 × min^−1 |  |  |  |  |  |  |  | ΔTm (CYP3A4 [8]): 8.1 °C; IC50 (CYP3A4 [1]): 160 nM
O=C(Cc1cccnc1)N[C@H](CS[C@H](Cc1ccccc1)C(=O)NCc1cccnc1)Cc1ccccc1 [Compound 8a] | 26% | 10.3 s⁻¹ and 10.3 ± 1.2 s⁻¹ | 39 ± 4% | 0.66 ± 0.10 10^3 × min^−1 | 600 ± 40 nM | 3.6 °C | 120 ± 10 nM | 421 nm | 443 nm | 96% | 1.03 | 
O=C(N[C@H](CS[C@H](Cc1ccccc1)C(=O)NCCCc1cccnc1)Cc1ccccc1)c1cccnc1 [Compound 10a] | 30% | 15.4 ± 1.8 s⁻¹ | 13 ± 2% | 0.17 ± 0.02 10^3 × min^−1 | 150 ± 20 nM | 7.2 °C | 8 ± 1 nM | 422 nm | 444 nm | 111% | 1.11 | improvement in heme protection relative to 3a (CYP3A4 [4]; relative to the Boc-containing 3a): 5%; IC50 (recombinant CYP3A5): 180 to 200 nM
